Tests used:
[1] = Metabolism (organ and blood radioactivity) of [^3H]-HHT in P388 mice; assay type: in vivo
Description: Animals: Adult DBA/2J male mice, 6 to 8 weeks old. All animals weighed approximately 25 g when used in experiments. Each member of which received identical dosed (i.p.) of HHT. Tumor: P388 leukemic cells induced in mice by inoculation with L1210 or P388 leukemic cells (1.0×10^5). After P388 induced in mice 5 days, 1 mg/kg of [^3H]-HHT (100 μC/mg) was injected to mice. […] Mice were killed at 1, 3, 6 and 24 hours after injection of [^3H]-HHT. The key data of HHT in metabolism process are determined counts per minute (CPM) of [^3H]-HHT in organs. CPM is determined by liquid scintillation counting (LSC). The methods of LSC combined with radioactive of [^3H]-HHT can be determined using a tracer of HHT in organs. After killed animals, organs and blood were obtained from P388 mice. […] Other processes are similar to the standard method.

[2] = system: salmonella typhimurium TA98; assay: Salmonella mutagenicity test, TA98; assay type: cell-based
Description: (§1) Methods for detecting carcinogens and mutagens with the salmonellia mutagenicity test are highly efficient in detecting carcinogens and mutagens. Major carcinogens tested have been detected as mutagens. Salmonella mutagenicity assay is very sensitive and simply test for detecting mutagens and carcinogens.
(§2) Mutagenicity assays were carried out at least in triplicate.

[3] = system: salmonella typhimurium TA97; assay: Salmonella mutagenicity test, TA97; assay type: cell-based
Description: as §1, §2

[4] = system: salmonella typhimurium TA100; assay: Salmonella mutagenicity test, TA100; assay type: cell-based
Description: as §1, §2

[5] = dog, in vivo
Text: Twenty normal adult dogs which weight approximately 10 kg[…] used in experiments.
Most deaths were caused by cardiac dysfunction.

Compound: COC(=O)C[C@](O)(CCCC(C)(C)O)C(=O)O[C@@H]1C(OC)=C[C@]23CCCN2CCc2cc4c(cc2[C@H]13)OCO4 [HHT, Homoharringtonine]
- CPM of [^3H]-HHT, Bone ([1]; 1 hour after 1 mg/kg i.p.): 500 CMP/mg organ
- CPM of [^3H]-HHT, Brain ([1]; 1 hour after 1 mg/kg i.p.): 499 CMP/mg organ
- CPM of [^3H]-HHT, Contents of intestine ([1]; 1 hour after 1 mg/kg i.p.): 3323 CMP/mg organ
- CPM of [^3H]-HHT, Contents of stomach ([1]; 1 hour after 1 mg/kg i.p.): 6821 CMP/mg organ
- CPM of [^3H]-HHT, Heart ([1]; 1 hour after 1 mg/kg i.p.): 1403 CMP/mg organ
- CPM of [^3H]-HHT, Intestine ([1]; 1 hour after 1 mg/kg i.p.): 1638 CMP/mg organ
- CPM of [^3H]-HHT, Kidney ([1]; 1 hour after 1 mg/kg i.p.): 6501 CMP/mg organ
- CPM of [^3H]-HHT, Liver ([1]; 1 hour after 1 mg/kg i.p.): 4145 CMP/mg organ
- CPM of [^3H]-HHT, Lung ([1]; 1 hour after 1 mg/kg i.p.): 2100 CMP/mg organ
- CPM of [^3H]-HHT, Spleen ([1]; 1 hour after 1 mg/kg i.p.): 2828 CMP/mg organ
- CPM of [^3H]-HHT, Stomach ([1]; 1 hour after 1 mg/kg i.p.): 1626 CMP/mg organ
- CPM of [^3H]-HHT, Bone ([1]; 3 hours after 1 mg/kg i.p.): 560 CMP/mg organ
- CPM of [^3H]-HHT, Brain ([1]; 3 hours after 1 mg/kg i.p.): 646 CMP/mg organ
- CPM of [^3H]-HHT, Contents of intestine ([1]; 3 hours after 1 mg/kg i.p.): 7215 CMP/mg organ
- CPM of [^3H]-HHT, Contents of stomach ([1]; 3 hours after 1 mg/kg i.p.): 84375 CMP/mg organ
- CPM of [^3H]-HHT, Heart ([1]; 3 hours after 1 mg/kg i.p.): 1800 CMP/mg organ
- CPM of [^3H]-HHT, Intestine ([1]; 3 hours after 1 mg/kg i.p.): 3288 CMP/mg organ
- CPM of [^3H]-HHT, Kidney ([1]; 3 hours after 1 mg/kg i.p.): 3121 CMP/mg organ
- CPM of [^3H]-HHT, Liver ([1]; 3 hours after 1 mg/kg i.p.): 6718 CMP/mg organ
- CPM of [^3H]-HHT, Lung ([1]; 3 hours after 1 mg/kg i.p.): 2427 CMP/mg organ
- CPM of [^3H]-HHT, Spleen ([1]; 3 hours after 1 mg/kg i.p.): 2426 CMP/mg organ
- CPM of [^3H]-HHT, Stomach ([1]; 3 hours after 1 mg/kg i.p.): 2321 CMP/mg organ
- CPM of [^3H]-HHT, Bone ([1]; 6 hours after 1 mg/kg i.p.): 505 CMP/mg organ
- CPM of [^3H]-HHT, Brain ([1]; 6 hours after 1 mg/kg i.p.): 793 CMP/mg organ
- CPM of [^3H]-HHT, Contents of intestine ([1]; 6 hours after 1 mg/kg i.p.): 6250 CMP/mg organ
- CPM of [^3H]-HHT, Contents of stomach ([1]; 6 hours after 1 mg/kg i.p.): 100719 CMP/mg organ
- CPM of [^3H]-HHT, Heart ([1]; 6 hours after 1 mg/kg i.p.): 1193 CMP/mg organ
- CPM of [^3H]-HHT, Intestine ([1]; 6 hours after 1 mg/kg i.p.): 2475 CMP/mg organ
- CPM of [^3H]-HHT, Kidney ([1]; 6 hours after 1 mg/kg i.p.): 3501 CMP/mg organ
- CPM of [^3H]-HHT, Liver ([1]; 6 hours after 1 mg/kg i.p.): 4109 CMP/mg organ
- CPM of [^3H]-HHT, Lung ([1]; 6 hours after 1 mg/kg i.p.): 1788 CMP/mg organ
- CPM of [^3H]-HHT, Spleen ([1]; 6 hours after 1 mg/kg i.p.): 2198 CMP/mg organ
- CPM of [^3H]-HHT, Stomach ([1]; 6 hours after 1 mg/kg i.p.): 3703 CMP/mg organ
- Number of His^+revertants/plate ([2]; TA98 +S, 0.1 μg/plate): 34 ± 4 revertants/plate
- Number of His^+revertants/plate ([2]; TA98 +S, 1 μg/plate): 32 ± 4 revertants/plate
- Number of His^+revertants/plate ([2]; TA98 +S, 10 μg/plate): 36 ± 3 revertants/plate
- Number of His^+revertants/plate ([2]; TA98 +S, 100 μg/plate): 34 ± 4 revertants/plate
- Number of His^+revertants/plate ([2]; TA98 −S, 0.1 μg/plate): 29 ± 3 revertants/plate
- Number of His^+revertants/plate ([2]; TA98 −S, 1 μg/plate): 30 ± 3 revertants/plate
- Number of His^+revertants/plate ([2]; TA98 −S, 10 μg/plate): 38 ± 4 revertants/plate
- Number of His^+revertants/plate ([2]; TA98 −S, 100 μg/plate): 32 ± 4 revertants/plate
- Number of His^+revertants/plate ([3]; TA97 +S, 0.1 μg/plate): 145 ± 14 revertants/plate
- Number of His^+revertants/plate ([3]; TA97 +S, 1 μg/plate): 150 ± 14 revertants/plate
- Number of His^+revertants/plate ([3]; TA97 +S, 10 μg/plate): 165 ± 16 revertants/plate
- Number of His^+revertants/plate ([3]; TA97 +S, 100 μg/plate): 160 ± 17 revertants/plate
- Number of His^+revertants/plate ([3]; TA97 −S, 0.1 μg/plate): 120 ± 10 revertants/plate
- Number of His^+revertants/plate ([3]; TA97 −S, 1 μg/plate): 130 ± 11 revertants/plate
- Number of His^+revertants/plate ([3]; TA97 −S, 10 μg/plate): 160 ± 16 revertants/plate
- Number of His^+revertants/plate ([3]; TA97 −S, 100 μg/plate): 150 ± 16 revertants/plate
- Number of His^+revertants/plate ([4]; TA100 +S, 0.1 μg/plate): 158 revertants/plate
- Number of His^+revertants/plate ([4]; TA100 +S, 1 μg/plate): 152 revertants/plate
- Number of His^+revertants/plate ([4]; TA100 +S, 10 μg/plate): 165 revertants/plate
- Number of His^+revertants/plate ([4]; TA100 +S, 100 μg/plate): 160 revertants/plate
- Number of His^+revertants/plate ([4]; TA100 −S, 0.1 μg/plate): 148 ± 12 revertants/plate
- Number of His^+revertants/plate ([4]; TA100 −S, 1 μg/plate): 140 ± 13 revertants/plate
- Number of His^+revertants/plate ([4]; TA100 −S, 10 μg/plate): 162 ± 17 revertants/plate
- Number of His^+revertants/plate ([4]; TA100 −S, 100 μg/plate): 158 ± 15 revertants/plate
- reversibility of toxicities observed [5]: completely reversible upon discontinuation of treatment
